Measured values: patent US6706740B2, “Fungicidal heterocyclic aromatic amides and their compositions, methods of use and preparation” (Dow AgroSciences LLC, priority 1999, dated 2004)

Tests used:
[1] = test system: Rhizoctonia solani (RHIZSO); assay: microbe, parasite or virus in culture; assay type: cell-based; settings: Rhizoctonia solani, read-out: RHIZSO in vitro Growth Inhibition
[2] = test system: Puccinia recondita—PUCCRT; assay: Brown Rust of Wheat, in vivo whole plant, 24 Hour Protectant; settings: Puccinia; wheat plants sprayed at 100 ppm, inoculated after 24 hours; control of fungal infection vs untreated plants; read-out: PUCCRT in vivo 1 Day Protectant
[3] = test system: Mycosphaerella graminicola (Septoria tritici—SEPTTR); assay: In vitro fungal growth inhibition, Mycosphaerella graminicola (SEPTTR); assay type: cell-based; settings: Zymoseptoria tritici; 25 ppm in the growth medium; read-out: SEPTTR in vitro Growth Inhibition
[4] = test system: Phytophthora infestans—PHYTIN; assay: whole plant or invertebrate; assay type: in vivo; settings: Phytophthora, in Solanum lycopersicum, 24 h, read-out: PHYTIN in vivo 1 Day Protectant
[5] = test system: Phytophthora infestans (PHYTIN); assay: microbe, parasite or virus in culture; assay type: cell-based; settings: Phytophthora infestans, read-out: PHYTIN in vitro Growth Inhibition
[6] = test system: Erysiphe graminis—ERYSGT; assay: Powdery Mildew of Wheat, in vivo whole plant, 24 Hour Protectant; settings: Erysiphe; wheat plants sprayed at 100 ppm, inoculated after 24 hours; control of fungal infection vs untreated plants; read-out: ERYSGT in vivo 1 Day Protectant
[7] = test system: Stagonospora nodorum (Leptosphaeria nodorum—LEPTNO); assay: In vitro fungal growth inhibition, Stagonospora nodorum (LEPTNO); assay type: cell-based; settings: Leptosphaeria; 25 ppm in the growth medium; read-out: LEPTNO in vitro Growth Inhibition
[8] = test system: Septoria tritici—SEPTTR; assay: Leaf Blotch of Wheat, in vivo whole plant, 24 Hour Protectant; settings: wheat plants sprayed at 100 ppm, inoculated after 24 hours, control of fungal infection vs untreated plants; for pest or weed control at 100 ppm: Zymoseptoria tritici, 24 h, read-out: SEPTTR in vivo 1 Day Protectant
[9] = test system: Leptosphaeria nodorum—LEPTNO; assay: Glume Blotch of Wheat, in vivo whole plant, 24 Hour Protectant; settings: wheat plants sprayed at 100 ppm, inoculated after 24 hours, control of fungal infection vs untreated plants; for pest or weed control at 100 ppm: Leptosphaeria, read-out: LEPTNO in vivo 1 Day Protectant
[10] = test system: Ustilago maydis (USTIMA); assay: microbe, parasite or virus in culture; assay type: cell-based; settings: Mycosarcoma maydis, read-out: USTIMA in vitro Growth Inhibition
[11] = test system: Magnaporthe grisea (Pyricularia oryzae—PYRIOR); assay: microbe, parasite or virus in culture; assay type: cell-based; settings: Pyricularia oryzae, read-out: PYRIOR in vitro Growth Inhibition

COc1ccnc(C(=O)N[C@H]2C[C@@H](C(F)(F)F)C[C@@H](C(F)(F)F)C2)c1OC(C)=O [Compound 576]
inhibition at 25 ppm [1]: < 80% | pest or weed control at 100 ppm [2]: 25 to 74% | inhibition at 25 ppm [3]: < 80% | pest or weed control at 100 ppm [4]: < 25% | inhibition at 25 ppm [5]: < 80% | pest or weed control at 100 ppm [6]: < 25% | inhibition at 25 ppm [7]: < 80% | pest or weed control at 100 ppm [8]: 25 to 74% | pest or weed control at 100 ppm [9]: 25 to 74% | inhibition at 25 ppm [10]: < 80% | inhibition at 25 ppm [11]: < 80%

COc1ccnc(C(=O)N[C@@H]2C[C@@H](C(F)(F)F)C[C@@H](C(F)(F)F)C2)c1OC(C)=O [Compound 577]
inhibition at 25 ppm [1]: < 80% | pest or weed control at 100 ppm [2]: < 25% | inhibition at 25 ppm [3]: < 80% | pest or weed control at 100 ppm [4]: < 25% | inhibition at 25 ppm [5]: < 80% | pest or weed control at 100 ppm [6]: < 25% | inhibition at 25 ppm [7]: < 80% | pest or weed control at 100 ppm [8]: 25 to 74% | pest or weed control at 100 ppm [9]: 25 to 74% | inhibition at 25 ppm [10]: < 80% | inhibition at 25 ppm [11]: < 80%

COc1ccnc(C(=O)NC2CC(C)(C)C=C[C@@H](C)[C@@H]2C)c1OC(C)=O (stereo partly drawn) [Compound 578]
inhibition at 25 ppm [1]: < 80% | pest or weed control at 100 ppm [2]: < 25% | inhibition at 25 ppm [3]: < 80% | pest or weed control at 100 ppm [4]: < 25% | inhibition at 25 ppm [5]: < 80% | pest or weed control at 100 ppm [6]: < 25% | inhibition at 25 ppm [7]: < 80% | pest or weed control at 100 ppm [8]: 25 to 74% | pest or weed control at 100 ppm [9]: 25 to 74% | inhibition at 25 ppm [10]: < 80% | inhibition at 25 ppm [11]: < 80%

COc1ccnc(C(=O)NC2CC(C)(C)C=CC=C2C)c1OC(C)=O (stereo not drawn) [Compound 579]
inhibition at 25 ppm [1]: < 80% | pest or weed control at 100 ppm [2]: < 25% | inhibition at 25 ppm [3]: < 80% | pest or weed control at 100 ppm [4]: < 25% | inhibition at 25 ppm [5]: < 80% | pest or weed control at 100 ppm [6]: < 25% | inhibition at 25 ppm [7]: < 80% | SEPTTR in vivo 1 Day Protectant [8]: + + | pest or weed control at 100 ppm [9]: < 25% | inhibition at 25 ppm [10]: < 80% | inhibition at 25 ppm [11]: < 80%

COc1ccnc(C(=O)NC2CC(C)(C)/C=C\CC(C)(C)C2)c1OC(C)=O (stereo not drawn) [Compound 580]
inhibition at 25 ppm [1]: < 80% | pest or weed control at 100 ppm [2]: 25 to 74% | inhibition at 25 ppm [3]: < 80% | pest or weed control at 100 ppm [4]: < 25% | inhibition at 25 ppm [5]: < 80% | pest or weed control at 100 ppm [6]: < 25% | inhibition at 25 ppm [7]: < 80% | pest or weed control at 100 ppm [8]: 25 to 74% | LEPTNO in vivo 1 Day Protectant [9]: + + | inhibition at 25 ppm [10]: < 80% | inhibition at 25 ppm [11]: < 80%

COC(=O)C(COC(=O)C(C)c1ccccc1)NC(=O)c1nccc(OC)c1OC(C)=O (stereo not drawn) [Compound 581]
inhibition at 25 ppm [1]: < 80% | pest or weed control at 100 ppm [2]: < 25% | inhibition at 25 ppm [3]: < 80% | pest or weed control at 100 ppm [4]: < 25% | inhibition at 25 ppm [5]: < 80% | pest or weed control at 100 ppm [6]: < 25% | inhibition at 25 ppm [7]: < 80% | pest or weed control at 100 ppm [8]: 25 to 74% | pest or weed control at 100 ppm [9]: 25 to 74% | inhibition at 25 ppm [10]: < 80% | inhibition at 25 ppm [11]: < 80%

COC(=O)C(COC(=O)CCc1ccccc1)NC(=O)c1nccc(OC)c1OC(C)=O (stereo not drawn) [Compound 583]
inhibition at 25 ppm [1]: < 80% | pest or weed control at 100 ppm [2]: < 25% | inhibition at 25 ppm [3]: < 80% | pest or weed control at 100 ppm [4]: < 25% | inhibition at 25 ppm [5]: < 80% | pest or weed control at 100 ppm [6]: < 25% | inhibition at 25 ppm [7]: < 80% | pest or weed control at 100 ppm [8]: < 25% | pest or weed control at 100 ppm [9]: 25 to 74% | inhibition at 25 ppm [10]: < 80% | inhibition at 25 ppm [11]: < 80%

COC(=O)C(COC(=O)COCc1ccccc1)NC(=O)c1nccc(OC)c1OC(C)=O (stereo not drawn) [Compound 585]
inhibition at 25 ppm [1]: < 80% | pest or weed control at 100 ppm [2]: 25 to 74% | inhibition at 25 ppm [3]: < 80% | pest or weed control at 100 ppm [4]: < 25% | inhibition at 25 ppm [5]: < 80% | pest or weed control at 100 ppm [6]: < 25% | inhibition at 25 ppm [7]: < 80% | pest or weed control at 100 ppm [8]: 25 to 74% | pest or weed control at 100 ppm [9]: 25 to 74% | inhibition at 25 ppm [10]: < 80% | inhibition at 25 ppm [11]: < 80%

COC(=O)C(COC(=O)CC(C)OC(=O)C(C)C)NC(=O)c1nccc(OC)c1OC(C)=O (stereo not drawn) [Compound 586]
inhibition at 25 ppm [1]: < 80% | pest or weed control at 100 ppm [2]: 25 to 74% | inhibition at 25 ppm [3]: < 80% | pest or weed control at 100 ppm [4]: < 25% | inhibition at 25 ppm [5]: < 80% | pest or weed control at 100 ppm [6]: < 25% | inhibition at 25 ppm [7]: < 80% | pest or weed control at 100 ppm [8]: 25 to 74% | pest or weed control at 100 ppm [9]: 25 to 74% | inhibition at 25 ppm [10]: < 80% | inhibition at 25 ppm [11]: < 80%
